Experimental data from patent publication US6610523B1, “Cytokine-, stress-, and oncoprotein-activated human protein kinase kinases” (University of Massachusetts, priority 1995, dated 2003).
Numbering of substitutions follows the chain as printed.

B1: GAL4-ATF2 (Ala^69.71): GAL4-ATF2 fusion protein with Thr69 and Thr71 replaced with Ala (protein)
chain: MKLLSSIEQACDICRLKKLKCSKEKPKCAKCLKNNWECRYSPKTKRSPLTRAHLTEVESRLERLEQLFLLIFPREDLDMILKMDSLQDIKALLTGLFVQDNVNKDAVTDRLASVETDMPLTLRQHRISATSSSEESSNKGQRQLTVSMKFKLHVNSARQYKDLWNMSDDKPFLCTAPGCGQRFTNEDHLAVHKHKHEMTLKFGPARNDSVIVADQAPAPTRFLKNCEEVGLFNELASPFENEFKKASEDDIKKMPLDLSPLATPIIRSKIEEPSVVETTHQDSPLPHPESTTSDEKEVPLAQTAQPTSAIVRPASLQVPNVLLTSSDSSVIIQQAVPSPTSSTVITQAPSSNRPIVPVPGPFPLLLHLPNGQTMPVAIPASITSSNVHVPAAVPLVRPVTMVPSVPGIPGPSSPQPVQSEAKMRLKAALTQQHPPVTNGDTVKGHGSGLVRTQSEESRPQSLQQPATSTTETPASPAHTTPQTQSTSGRRRRAANEDPDEKRRKFLERNRAAASRCRQKRKVWVQSLEKKAEDLSSLNGQLQSEVTLLRNEVAQLKQLLLAHKDCPVTAMQKKSGYHTADKDDSSEDISVPSSPHTEAIQHSSVSTSNGVSSTSKAEAVATSVLTQMADQSTEPALSQIVMAPSSQSQPSGS
B2: GAL4-ATF2 (wild type): fusion protein consisting of ATF2 and the GAL4 DNA binding domain, wild-type Thr69,71 (protein)
chain: B1 chain with A216T, A218T
B3: ATF2: Activating Transcription Factor-2, substrate protein of p38 (protein)
chain: MKFKLHVNSARQYKDLWNMSDDKPFLCTAPGCGQRFTNEDHLAVHKHKHEMTLKFGPARNDSVIVADQTPTPTRFLKNCEEVGLFNELASPFENEFKKASEDDIKKMPL

Columns and labels:
[1] = test system: p38 MAP kinase; experiment: Immunecomplex protein kinase assay of p38 MAP kinase from treated HeLa cells, ATF2 as substrate; assay type: cell-based; settings: for p38 activation (in words): PMA 10 nM, EGF 10 nM, sorbitol 300 mM, interleukin-1 10 ng/ml, TNFα 10 ng/ml; for Relative Protein Kinase Activity p38: control = 1.0
Method: (§1) The effect of phorbol ester, EGF, UV radiation, osmotic stress, IL-1, tumor necrosis factor (TNF), and LPS on p38 MAP kinase and JNK1 activity were measured in immunecomplex protein kinase assays using ATP [γ-^32P] and ATF2 as substrates. TNFα and IL-1α were from Genzyme Corp. Lipolysaccharide (LPS) was isolated from lyophilized Salmonella minesota Re595 bacteria as described (Mathison et a. (1988) J. Clin. Invest. 81:1925). Phorbol myristate acetate was from Sigma. EGF was purified from mouse salivary glands (Davis (1988) J. Biol. Chem. 263:9462). Kinase assays were performed using immunoprecipitates of p38 and JNK. The immunocomplexes were washed twice with kinase buffer (described above), and the assays initiated by the addition of 1 μg of ATF2 and 50 μM [γ-^32P]ATP (10 Ci/mmol) in a final volume of 25 μl. The reactions were terminated after 30 minutes at 30° C. by addition of Laemmli sample buffer. The phosphorylation of ATF2 was examined after SDS-PAGE by autoradiography, and the rate of ATF2 phosphorylation quantitated by PhosphorImager analysis. […]

[2] = test system: JNK1; experiment: Immunecomplex protein kinase assay of JNK1 from treated HeLa cells, ATF2 as substrate; assay type: cell-based; settings: for JNK1 activation (in words): PMA 10 nM, EGF 10 nM, sorbitol 300 mM, interleukin-1 10 ng/ml, TNFα 10 ng/ml; for Relative Protein Kinase Activity JNK: control = 1.0
Method: as §1

[3] = test system: JNK1; experiment: JNK1 immunecomplex kinase assay (c-Jun substrate) in CHO cells expressing epitope-tagged JNK1 after osmotic shock; assay type: cell-based
Method: CHO cells were co-transfected with the plasmid pCMV-Flag-Jnk1 and pRSV-Neo (Dérijard et al. (1994) supra) . A stable cell line expressing epitope-tagged Jnk1 (Flag; Immunex Corp.) was isolated by selection with Geneticin (Gibco-BRL). The cells were incubated with 0, 100, 150, 300, 600, or 1000 mM sorbitol for 1 hour at 37° C. The cells were collected in lysis buffer (20 mM Tris, pH 7.4, 1% TRITON® X-100, 2 mM EDTA, 137 mM NaCl, 25 mM β-glycerophosphate, 1 mM orthovanadate, 2 mM pyrophosphate, 10% glycerol, 1 mM phenylmethylsulfonyl fluoride, 10 μg/ml leupeptin) and a soluble extract was obtained by centrifugation at 100,000 g for 30 minutes at […]. The epitope-tagged JNK1 was isolated by immunoprecipitation with the monoclonal antibody M2 (Immunex Corp.). The immunoprecipitates were washed extensively with lysis buffer. Immunecomplex kinase assays were done in 25 μl of 25 mM Hepes, pH 7.4, 25 mM MgCl2, 25 mM β-glycerophosphate, 2 mM dithiothreitol, 100 AM orthovanadate, and 50 AM ATP [γ-^32P] (10 Ci/mmole) with 2.5 μg of bacterially expressed c-Jun (residues 1-79) fused to glutathione-S-transferase (GST) as a substrate. The phosphorylation of c-Jun was examined after SDS-PAGE by autoradiography and PhosphorImager (Molecular Dynamics Inc.) analysis.
The time course of JNK1 protein kinase activation was measured in cells incubated in medium supplemented with 300 mM sorbitol as described above. Increased JNK1 activity was observed within 5 minutes of exposure to sorbitol, with maximum activity occurring after 15-30 minutes.

[4] = test system: JNK1; experiment: Immunecomplex protein kinase assay of JNK1 from CHO cells that express human CD14, ATF2 as substrate; assay type: cell-based
Method: (§2) The effect of phorbol ester, EGF, UV radiation, osmotic stress, IL-1, tumor necrosis factor (TNF), and LPS on p38 MAP kinase and JNK1 activity were measured in immunecomplex protein kinase assays using ATP [γ-^32P] and ATF2 as substrates. TNFα and IL-1α were from Genzyme Corp. Lipolysaccharide (LPS) was isolated from lyophilized Salmonella minesota Re595 bacteria as described (Mathison et a. (1988) J. Clin. Invest. 81:1925). Phorbol myristate acetate was from Sigma. EGF was purified from mouse salivary glands (Davis (1988) J. Biol. Chem. 263:9462). Kinase assays were performed using immunoprecipitates of p38 and JNK. The immunocomplexes were washed twice with kinase buffer (described above), and the assays initiated by the addition of 1 μg of ATF2 and 50 μM [γ-^32P]ATP (10 Ci/mmol) in a final volume of 25 μl. The reactions were terminated after 30 minutes at 30° C. by addition of Laemmli sample buffer. The phosphorylation of ATF2 was examined after SDS-PAGE by autoradiography, and the rate of ATF2 phosphorylation quantitated by PhosphorImager analysis.
(§3) The effect of LPS on the activity of p38 was examined using CHO cells that express human CD14.

[5] = test system: p38 MAP kinase; experiment: Immunecomplex protein kinase assay of p38 MAP kinase from CHO cells that express human CD14, ATF2 as substrate; assay type: cell-based
Method: as §2, §3

[6] = test system: ATF2; experiment: Electrophoretic mobility of ATF2 by immuno-blot in JNK1-transfected CHO cells; assay type: cell-based; settings: IL-1α 10 ng/ml or fetal bovine serum 20%, 30 minutes at 37° C.
Method: CHO cells were maintained in Ham's F12 medium supplemented with 5% […] (Gibco-BRL). Cells were labeled and transfected with JNK1 as described above. CHO cells were treated with UV-C (40 J/m^2), IL-1α (10 ng/ml) (Genzyme), or fetal bovine serum (20%) (Gibco-BRL). The cells were incubated for 30 minutes at 37° C. prior to harvesting. The electrophoretic mobility of ATF2 after SDS-PAGE was examined by protein immuno-blot analysis.

[7] = test system: p38 MAP kinase; experiment: p38 MAP kinase immunecomplex assay (ATF2 substrate) in transfected COS-1 cells; assay type: cell-based; settings: COS-1 cells transfected with epitope-tagged p38; 10 nM EGF
Method: COS-1 cells were transfected with epitope-tagged p38 MAP kinase, together with an empty expression vector or an expression vector encoding MEK1, MKK3, or MKK4α. Some of the cultures were exposed to UV radiation (40 J/m^2) or treated with 10 nM EGF. p38 MAP kinase was isolated by immunoprecipitation with M2 monoclonal antibody, and the protein kinase activity was measured in the immunecomplex with [γ-^32P]ATP and ATF2 as substrates. The product of the phosphorylation reaction was visualized after SDS-PAGE by autoradiography. […] MKK3 and MKK4 phosphorylation of ATF2 was similar to that seen with p38 MAP kinase isolated from UV-irradiated cells.

[8] = test system: reporter plasmid pG5E1bLuc (GAL4 sites, firefly luciferase gene); experiment: GAL4-ATF2 fusion protein co-transfection assay with luciferase reporter plasmid pG5E1bLuc in CHO cells; assay type: cell-based; settings: luciferase and β-galactosidase mean activity ratio of three experiments
Method: A fusion protein consisting of ATF2 and the GAL4 DNA binding domain was expressed in CHO cells as described above. The activity of the GAL4-ATF2 fusion protein was measured in co-transfection assays with the reporter plasmid pG5E1bLuc (Seth et al. (1992) J. Biol. Chem. 267:24796, hereby specifically incorporated by reference). The reporter plasmid contains five GAL4 sites cloned upstream of a minimal promoter element and the firefly luciferase gene. Transfection efficiency was monitored with a control plasmid that expresses β-galactosidase (pCH110; Pharmacia-LKB Biotechnology). The luciferase and β-galactosidase activity detected in cell extracts was measured as the mean activity ratio of three experiments (Gupta et al. (1993) Proc. Natl. Acad. Sci. USA 90:3216, hereby specifically incorporated by reference).

[9] = target: T1, p38 MAP kinase (Homo sapiens, UniProt Q16539); experiment: Substrate phosphorylation by bacterially-expressed p38 MAP kinase, PhosphorImager quantitation; assay type: biochemical; settings: 30 minutes reaction; ATF2 = 1.0
T1 construct: a PCR fragment containing the coding region of the p38 MAP kinase cDNA; GST (N); made in house; host or cells: bacteria
Method: Substrate phosphorylation by p38 MAP kinase was examined by incubation of bacterially-expressed p38 MAP kinase with IKB, cMyc, EGF-R, cytoplasmic phospholipase A2 (cPLA2), c-Jun, and mutated ATF2 (Thr^69,71) and ATP [γ-^32P] (Raingeaud et al. (1995) J. Biol. Chem 270:7420, herein specifically incorporated by reference). GST-IKB was provided by Dr D. Baltimore (Massachusetts Institute of Technology). GST-cMyc (Alvarez et al. (1991) J. Biol. Chem. 266:15277), GST-EGF-R (residues 647-688) (Koland et al. (1990) Biochem. Biophys. Res. Commun. 166:90), and GST-c-Jun (Dérijard et al. (1994) supra) have been described. The phosphorylation reaction was terminated after 30 minutes by addition of Laemmli sample buffer. The phosphorylated proteins were resolved by SDS-PAGE and detected by autoradiography. The rate phosphorylation of the substrate proteins was quantitated by PhosphorImager (Molecular Dynamics Inc.) analysis. The relative phosphorylation of ATF2, MBP, EGF-R, and IKB was 1.0, 0.23, 0.04, and 0.001, respectively.

[10] = CHO cells that express human CD14, 10 ng/ml, control = 1.0

T1 sequence (Q16539 whole entry, the tested form may be a part): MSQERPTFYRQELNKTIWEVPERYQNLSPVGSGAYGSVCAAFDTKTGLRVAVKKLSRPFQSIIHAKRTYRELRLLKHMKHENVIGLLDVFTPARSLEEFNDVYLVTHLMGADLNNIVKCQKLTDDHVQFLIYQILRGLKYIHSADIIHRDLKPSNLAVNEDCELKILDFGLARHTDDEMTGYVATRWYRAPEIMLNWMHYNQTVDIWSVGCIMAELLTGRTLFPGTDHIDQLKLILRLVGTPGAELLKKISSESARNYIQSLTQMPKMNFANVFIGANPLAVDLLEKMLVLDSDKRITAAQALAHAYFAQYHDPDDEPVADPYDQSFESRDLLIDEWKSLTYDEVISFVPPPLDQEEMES

| Molecule | p38 activation (in words) [1] | Relative Protein Kinase Activity p38 [1] | JNK1 activation (in words) [2] | Relative Protein Kinase Activity JNK [2] | other results |
| --- | --- | --- | --- | --- | --- |
| CCCCCCCCCCCCCC(=O)O[C@@H]1[C@@H](C)[C@@]2(O)[C@@H](C=C(CO)C[C@]3(O)C(=O)C(C)=C[C@@H]23)[C@@H]2C(C)(C)[C@]12OC(C)=O [Phorbol Ester, Phorbol myristate acetate] | very weakly activated | 2.9 | very weakly activated | 2.3 | – |
| OC[C@@H](O)[C@@H](O)[C@H](O)[C@@H](O)CO [sorbitol] | strongly activated | 4.2 | strongly activated | 18.1 | time of maximum JNK1 activity ([3]; 300 mM sorbitol): 15 to 30 min; time to increased JNK1 activity ([3]; 300 mM sorbitol): ≤ 5 min; JNK1 activation (in words) ([3]; 100, 150, 300, 600 or 1000 mM sorbitol, 1 hour at 37° C.): JNK1 activation was observed at all concentrations |
| Tumor Necrosis Factor | strongly activated | 10.3 | strongly activated | 19.3 | – |
| Lipopolysaccharide | – | – | – | – | Relative Protein Kinase Activity JNK [4, 10]: 3.6; JNK1 activation (in words) ([4]; CHO cells, 10 ng/ml LPS): only slightly activated; Relative Protein Kinase Activity p38 [5, 10]: 3.7; p38 activation (in words) ([5]; CHO cells, 10 ng/ml LPS): only slightly activated |
| Interleukin-1: IL-1α from Genzyme Corp., pro-inflammatory cytokine | strongly activated | 6.2 | strongly activated | 8.9 | shift in ATF2 electrophoretic mobility (in words) [6]: A shift in ATF2 electrophoretic mobility was observed |
| Epidermal Growth Factor: EGF purified from mouse salivary glands | only weakly activated | 2.1 | only weakly activated | 1.9 | ATF2 phosphorylation by p38 MAP kinase isolated from treated cells (in words) [7]: not phosphorylated |
| B1 | – | – | – | – | LUCIFERASE ACTIVITY [8]: 29,000 Light Units/OD |
| B2 | – | – | – | – | LUCIFERASE ACTIVITY [8]: 320,000 Light Units/OD |
| B3 | – | – | – | – | relative phosphorylation of substrate protein by p38 MAP kinase [9]: 1.0 |
